The values that follow come from patent US20180320177A1, “COMPOSITIONS AND METHODS FOR THE TREATMENT OF LIVER FIBROSIS” (UNIVERSITY OF CONNECTICUT, priority 2015, published 2018).

One data set concerns Smad signaling. As to the kind of experiment: Smad signaling in LX2 cells (Western blot). The format is cell-based, human. As to conditions: LX2 cells (FIG. 5C). As for the experimental part:
(§1) Western Blotting: Total protein lysates were prepared from livers and cells in lysis buffer containing 50 mM Tris, pH 8.0, 1% Nonidet™ P-40, 150 mM NaCl, 0.5% sodium deoxycholate, 0.1% SDS with protease inhibitors (Thermo Fisher Scientific) and subjected to immunoblotting. Nuclear and cytoplasmic subcellular fractions were prepared using NE-PER nuclear and cytoplasmic extraction reagents (Pierce) according to the manufacturer's instructions. The blot was incubated with a primary antibody, followed by a secondary antibody conjugated to horseradish peroxidase. ECL kit (Pierce) was used to detect the reactivity. The following antibodies were obtained from Cell Signaling Technology: HMGB2, HMGB1, AKT, p-AKT, mTOR, p-mTOR, ERK1/2, pERK1/2, Raptor, Rictor, p53, p21, p-Bad, Smad4, p-Smad2/3, Lamin A/C, a-SMA, MMP2, MMP9, TIMP1, RhoA, Rho-GTP, Cdc42, Rac1/2/3. Anti-HA antibody and anti-beta actin antibody were purchased from Sigma and Santa Cruz Biotechnology, respectively.
Cell Lines The LX-2 human stellate cell line was maintained in Dulbecco's Modified Eagle's Medium (DMEM) supplemented with 2% fetal bovine serum (FBS), 100 IU/ml penicillin, and 100 μg/ml streptomycin. Human hepatocellular carcinoma (HCC) MHCC97H cells were maintained in DMEM supplemented with 10% FBS, 100 IU/ml penicillin, and 100 μg/ml streptomycin, 1 mM HEPES, 1 mM sodium pyruvate, 2 mM L-glutamine. […]
Background: A western blot detects proteins with antibodies after separation by electrophoresis.

Data set [1] has as its system pAKT and pERK1/2 activation. As to the kind of experiment: pAKT and pERK1/2 activation and HMGB2 protein in primary stellate cells. As to conditions: stellate cells (FIG. 6E). Type of data set: cell-based, mouse. As for the experimental part:
as §1
Primary Mouse Hepatic Stellate Cells (HSCs) isolation and in vitro activation: Primary mouse HSCs were isolated from 8 to 12 weeks old wild type or Hmgb2^−/− mice, as described in the art with modifications. Briefly, mice were anesthetized with ketamine/xylazine mixture. The liver was perfused with Hank's balanced salt solution (HBSS) supplemented with 0.5 mM EGTA through the cannulated portal vein, followed by perfusion with HBSS supplemented with 0.5 mg/ml pronase (Sigma) and HBSS with 0.14 mg/ml collagenase (Sigma). The liver was dissected out from the mouse and dissociated cells were dispersed gently in HBSS. Primary HSC was isolated by three-layer discontinuous density gradient centrifugation with 25% and 50% percoll (Sigma) and plated on non-coated culture dishes in DMEM supplemented with 10% FBS, 100 IU/ml penicillin, and 100 μg/ml streptomycin. For culture-activated HSC studies, the medium of primary HSCs was replaced every day up to 7 days. For PDGF treatment, primary HSC cells were serum starved for 24 hr and then treated with PDFG for 3 or 5 days. […]

The test system of another data set is HMGB1 and HMGB2. As to conditions: neuroinflammation model; cited from earlier work.
A further data set has as its target T1, HMGB2 (Homo sapiens, UniProt P26583).
T1 sequence (P26583 1-209): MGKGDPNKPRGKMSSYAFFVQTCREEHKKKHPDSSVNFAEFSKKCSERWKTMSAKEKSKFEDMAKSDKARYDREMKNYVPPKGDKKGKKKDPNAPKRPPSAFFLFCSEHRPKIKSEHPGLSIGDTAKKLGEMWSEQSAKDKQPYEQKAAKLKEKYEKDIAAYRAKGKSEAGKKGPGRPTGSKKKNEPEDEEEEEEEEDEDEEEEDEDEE
As to the kind of experiment: Western blot of HMGB2 protein in LX-2 and Huh7 cells treated with ICM. As to conditions: for HMGB2 protein: fresh media every day for 3 days (FIG. 18 left). The format is cell-based. The arrangement: endogenous in cells; host or cells: LX-2, Huh7. Here is the method:
as §1
Cell Lines The LX-2 human stellate cell line was maintained in Dulbecco's Modified Eagle's Medium (DMEM) supplemented with 2% fetal bovine serum (FBS), 100 IU/ml penicillin, and 100 μg/ml streptomycin. Human hepatocellular carcinoma (HCC) MHCC97H cells were maintained in DMEM supplemented with 10% FBS, 100 IU/ml penicillin, and 100 μg/ml streptomycin, 1 mM HEPES, 1 mM sodium pyruvate, 2 mM L-glutamine. Tumor-initiating (TIC) cells were obtained from Dr. Hidekazu Tsukamoto at University of Southern California and were maintained in 1:1 DMEM:F12 supplement with 100 U/ml penicillin and 100 μg/ml streptomycin, 2 mM glutamine, 20 ng/ml mouse EGF, 10 nM dexamethasone, 1× embryomax nucleotides. All the cells were maintained at 37° C. humidified atmosphere with 5% CO2. TIC cells were infected with Hmgb2 shRNA lentivirus for 48 hr, and treated with 500 ng/ml puromycin for 2 weeks. The stable cells were used for migration and invasion assay, as well as western blot.

Another data set deals with TIC cells. Kind of data set: TIC cell spheroid assay. The format is cell-based. As to conditions: TIC cells with stable HMGB2 knockdown (FIG. 7F). Here is the method:
TIC cells were trypsinized into single cells and 1000 cells were suspended in serum free TIC medium with 1% methylcellulose supplemented with B27, 20 ng/ml EGF and 20 ng/ml FGF in each well of 96-well ultralow attachment plate.

With `CC1(C)Oc2cc(O)ccc2C2C1=CCn1c(=O)n(-c3ccccc3)c(=O)n12` (stereo not drawn) [ICM, inflachromene], the Smad signaling entry in the data set with Smad signaling is on record as “decreases Smad signaling”. In data set [1], the HMGB2 protein entry is listed as “reduces”, the pAKR activation result is listed as “reduces” and the pERk1/2 activation result was “reduces”. Besides, the “inhibitor profile HMGB1 / HMGB2” value in the data set with HMGB1 and HMGB2 is “dual inhibitor of both HMGB1 and HMGB2”. Moreover, on HMGB2 (Huh7 cells), the HMGB2 protein entry is reported as “dose-dependently decreased”. Besides, the “cytoplasm HMGB2 protein” value at HMGB2 (LX2 cells (FIG. 5C)) is reported as “reduces cytoplasm HMGB2 protein”. Moreover, the HMGB2 protein entry at HMGB2 (LX-2 cells) is reported as “dose-dependently decreased”.
As for “shHMGB2: small hairpin RNA against HMGB2 (SEQ ID NO: 8), delivered by AAV or lentivirus (CCGGGCTCAACATTAGCTTCAGTATCTCGAGATACTGAAGCTAATGTTGAGCTTTTTG)”, in the data set with TIC cells, the spheroid size result was “decreased spheroid size”.
